According to US20150030583A1, “Methods of Treating Serosal Cancer” (SLOAN KETTERING INSTITUTE FOR CANCER RESEARCH, priority 2011, published 2015):
Where two headings read alike, the source gives them in different places.

Test system: Ovcar3-GTL catenae
Assay: Ovcar3-GTL catena drug sensitivity / proliferation screen (alamarBlue, 384-well)
[1] = increased resistance of catena cells with glycocalyx coat versus no coat
[2] = read-out: IC50 (μM) No coat, pathway-specific inhibitors; catena cells without glycocalyx coat
[3] = read-out: IC50 (μM) With coat, pathway-specific inhibitors; catena cells with glycocalyx coat
[4] = 24 h, read-out: IC50 (μM) Addition on Day 1, Ovcar3-GTL catenae; compound added one day after seeding (cells predominantly lacking a glycocalyx)
[5] = 144 h, read-out: IC50 (μM) Addition on Day 6, Ovcar3-GTL catenae; compound added six days after seeding (established or substantial glycocalyx)
[6] = ratio of IC50 day 6 to day 1, Ovcar3-GTL catenae
[7] = read-out: IC50 (μM) Addition on Day 1; Ovcar3-GTL catenae; compound added one day after seeding (cells predominantly lacking a glycocalyx)
[8] = read-out: IC50 (μM) Addition on Day 6; Ovcar3-GTL catenae; compound added six days after seeding (established or substantial glycocalyx)

Structure (SMILES)	IC50 [2]	IC50 [3]	Fold resistance [1]	also measured
Cc1ccc(C(=O)Nc2ccc(CN3CCN(C)CC3)c(C(F)(F)F)c2)cc1C#Cc1cnc2cccnn12 [AP24534 (Ponatinib), Ponatinib]	–	–	16 fold	IC50 (read-out: IC50 (μM) No coat): 0.78 µM; IC50 (read-out: IC50 (μM) With coat): 13.4 µM
CC(C)C[C@H](NC(=O)[C@H](Cc1ccccc1)NC(=O)c1cnccn1)B(O)O [bortezomib]	–	–	–	IC50 [4]: 0.013 µM; IC50 [5]: 0.013 µM
c1ccc2c(c1)[I+]c1ccccc1-2 [diphenyleneiodonium chloride]	–	–	–	toxicity to catena cells with a glycocalyx coat: exert toxicity
Cn1cc(C2=C(c3ccc(Cl)cc3Cl)C(=O)NC2=O)c2ccccc21 [SB 216763]	> 25 µM	> 25 µM	–	–
CS(=O)(=O)c1ccc(C(=O)Nc2ccc(Cl)c(-c3ccccn3)c2)c(Cl)c1 [GDC-0449 (Vismodegib), Vismodegib]	> 25 µM	> 25 µM	–	–
Cc1ccc(NC(=O)c2ccc(CN3CCN(C)CC3)cc2)cc1Nc1nc(-c2cccnc2)cs1 [Masitinib (AB1010), Masitinib]	13.4 µM	13.4 µM	–	–
C/C1=C/C[C@@H](/C(C)=C/c2csc(C)n2)OC(=O)C[C@H](O)C(C)(C)C(=O)[C@H](C)[C@@H](O)[C@@H](C)CCC1 [dEpoB]	–	–	–	Increase in Resistance Day6/Day 1 [6]: 250,000 fold; IC50 [7]: 0.0004 µM; IC50 [8]: > 100 µM
Oc1cccc(-c2nc(N3CCOCC3)c3oc4ncccc4c3n2)c1 [PI-103]	–	–	16 fold	IC50 (read-out: IC50 (μM) No coat): 0.78 µM; IC50 (read-out: IC50 (μM) With coat): 13.4 µM
C[C@]1(c2nc3c(C(N)=O)cccc3[nH]2)CCCN1 [ABT-888 (Veliparib), Veliparib]	13.4 µM	> 25 µM	–	–
OCCn1cc(-c2cnc3nnn(Cc4ccc5ncccc5c4)c3n2)cn1 [PF-04217903]	> 25 µM	–	–	IC50 (read-out: IC50 (μM) With coat; pathway-specific inhibitors; catena cells with glycocalyx coat): > 25 µM
CNC(=O)c1cc(Oc2ccc(NC(=O)Nc3ccc(Cl)c(C(F)(F)F)c3)c(F)c2)ccn1 [BAY 73-4506 (Regorafenib), Regorafenib]	13.4 µM	13.4 µM	–	–
COc1cccc2c1C(=O)c1c(O)c3c(c(O)c1C2=O)C[C@@](O)(C(=O)CO)C[C@@H]3O[C@H]1C[C@H](N)[C@H](O)[C@H](C)O1 [doxorubicin]	–	–	–	IC50 [4]: 0.025 µM; IC50 [5]: 0.8 µM; Increase in Resistance Day6/Day 1 [6]: 32 fold
Cc1nc(Nc2ncc(C(=O)Nc3c(C)cccc3Cl)s2)cc(N2CCN(CCO)CC2)n1 [dasatinib]	–	–	–	IC50 [4]: > 100 µM; IC50 [5]: > 100 µM
COc1cccc2c1C(=O)c1c(O)c3c(c(O)c1C2=O)C[C@@](O)(C(C)=O)C[C@@H]3O[C@H]1C[C@H](N)[C@H](O)[C@H](C)O1 [daunarubacin]	–	–	–	Increase in Resistance Day6/Day 1 [6]: 133 fold; IC50 [7]: 0.006 µM; IC50 [8]: 0.8 µM
COC(=O)c1ccc2c(c1)NC(=O)/C2=C(\Nc1ccc(N(C)C(=O)CN2CCN(C)CC2)cc1)c1ccccc1 [BIBF1120 (Vargatef)]	13.4 µM	13.4 µM	–	–
Cc1[nH]c(/C=C2\C(=O)Nc3ccc(S(=O)(=O)N(C)c4cccc(Cl)c4)cc32)c(C)c1C(=O)N1CCN(C)CC1 [SU11274 (PKI-SU11274)]	3.14 µM	> 25 µM	>8 fold	–

More lines, main results first:

IC50 [2]	IC50 [3]	Structure (SMILES)	Fold resistance [1]	also measured
> 25 µM	> 25 µM	OCCn1cc(-c2ccc3c(c2)CC/C3=N\O)c(-c2ccncc2)n1 [GDC-0879]	–	–
3.14 µM	13.4 µM	NCC(=O)Nc1ccc(-n2nc(C(F)(F)F)cc2-c2ccc3c(ccc4ccccc43)c2)cc1 [OSU-03012]	4 fold	–
3.14 µM	> 25 µM	COCCNCc1ccc(-c2cc3nccc(Oc4ccc(NC(=S)NC(=O)Cc5ccc(F)cc5)cc4F)c3s2)nc1 [MGCD-265]	>8 fold	–
3.14 µM	> 25 µM	CS(=O)(=O)N1CCN(Cc2cc3nc(-c4cccc5[nH]ncc45)nc(N4CCOCC4)c3s2)CC1 [GDC-0941]	>8 fold	–
3.14 µM	> 25 µM	Cn1cc(-c2ccc3nnc(Sc4ccc5ncccc5c4)n3n2)cn1 [SGX-523]	>8 fold	–
